Here are results for 24 compounds from patent US20210040118A1, “IMMUNOMODULATORS, COMPOSITIONS AND METHODS THEREOF” (BETTA PHARMACEUTICALS CO., LTD, priority 2018, published 2021).

This test addresses T1, PD-1/PD-L1 (Homo sapiens, UniProt Q9NZQ7).
T1 construct: Recombinant human PD-L1 protein (19-238) with a His-tag at the C-terminus; purchased AcroBiosystems PD1-H5229 (PD-L1); PD1-H5257 (PD-1)
The test is described as follows: PD-1/PD-L1 homogenous time-resolved fluorescence (HTRF) binding assay. As to conditions: recombinant human PD-L1 (19-238) His-tag / human PD-1 (25-167) Fc tag, class symbols. A digest of the protocol:
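Inhibitors were preincubated 40 min at 25°C with 10 nM His-tagged human PD-L1 (19-238) and 3 nM Fc-tagged human PD-1 (25-167) in PBS pH 7.4 containing Tween-20, BSA and 1% DMSO. After 60 min with europium anti-human IgG and anti-His-APC, 665/620 nm signal ratio gave IC50 via percent-control fit.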

T1 sequence (Q9NZQ7 19-238): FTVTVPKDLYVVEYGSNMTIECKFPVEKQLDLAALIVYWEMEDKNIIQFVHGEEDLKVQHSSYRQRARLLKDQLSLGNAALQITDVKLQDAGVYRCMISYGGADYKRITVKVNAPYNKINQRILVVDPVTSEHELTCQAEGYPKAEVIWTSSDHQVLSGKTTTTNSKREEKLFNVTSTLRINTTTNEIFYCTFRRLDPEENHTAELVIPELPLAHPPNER

On to `COP(=O)(CCN1CCc2nc(C(=O)N3CCc4c(-c5cccc6c5CCN6C(=O)c5nc6c(s5)CN(CCP(=O)(OC)OC)CC6)cccc43)sc2C1)OC` [Example 124, dimethyl (2-(2-(1′-(5-(2-(dimethoxyphosphoryl)ethyl)-4,5,6,7-tetrahydrothiazolo[5,4-c]pyridine-2-carbonyl)-[4,4′-biindoline]-1-carbonyl)-6,7-dihydrothiazolo[5,4-c]pyridin-5(4H)-yl)ethyl)phosphonate], for which the IC50 was less than 25 nM.

In the case of `Cc1c(NC(=O)c2nnc(C3CCCN3)o2)cccc1-c1cccc(NC(=O)c2nnc(C3CCCN3)o2)c1C` (stereo not drawn) [Example 41, N,N′-(2,2′-dimethyl-[1,1′-biphenyl]-3,3′-diyl)bis(5-(pyrrolidin-2-yl)-1,3,4-oxadiazole-2-carboxamide)], the IC50 is less than 25 nM.

On to `Cc1c(NC(=O)c2ncc(CN3CCCC[C@H]3C(=O)O)s2)cccc1-c1cccc2c1CCN2C(=O)c1ncc(CN2CCCC[C@H]2C(=O)O)s1` [Example 72, (S)-1-((2-((3-(1-(5-(((S)-2-carboxypiperidin-1-yl)methyl)thiazole-2-carbonyl)indolin-4-yl)-2-methylphenyl)carbamoyl)thiazol-5-yl)methyl)piperidine-2-carboxylic acid], for which the IC50 was less than 25 nM. As to `Cc1c(NC(=O)c2cn3c(n2)CNCC3)cccc1-c1cccc(NC(=O)c2nc3c(s2)CNCC3)c1C` [Example 10, N-(2,2′-dimethyl-3′-(5,6,7,8-tetrahydroimidazo[1,2-a]pyrazine-2-carboxamido)-[1,1′-biphenyl]-3-yl)-4,5,6,7-tetrahydrothiazolo[5,4-c]pyridine-2-carboxamide], the IC50 was less than 25 nM.

Regarding `Cc1c(NC(=O)c2nnc(C(C)N)o2)cccc1-c1cccc(NC(=O)c2nnc(C(C)N)o2)c1C` (stereo not drawn) [Example 19, N,N′-(2,2′-dimethyl-[1,1′-biphenyl]-3,3′-diyl)bis(5-(1-aminoethyl)-1,3,4-oxadiazole-2-carboxamide)], the half-maximal inhibitory concentration (IC50) is 25 to 100 nM. Take `Cc1c(NC(=O)c2cc3c(s2)CCNC3)cccc1-c1cccc(NC(=O)c2nc3c(s2)CNCC3)c1C` [Example 15, N-(2,2′-dimethyl-3′-(4,5,6,7-tetrahydrothieno[3,2-c]pyridine-2-carboxamido)-[1,1′-biphenyl]-3-yl)-4,5,6,7-tetrahydrothiazolo[5,4-c]pyridine-2-carboxamide]: the IC50 is less than 25 nM. Regarding `CS(=O)(=O)NCCN1CCc2nc(C(=O)N3CCc4c(-c5cccc6c5CCN6C(=O)c5nc6c(s5)CN(CCNS(C)(=O)=O)CC6)cccc43)sc2C1` [Example 117, N,N′-((([4,4′-biindoline]-1,1′-dicarbonyl)bis(6,7-dihydrothiazolo[5,4-c]pyridine-2,5(4H)-diyl))bis(ethane-2,1-diyl))dimethanesulfonamide], the IC50 was less than 25 nM. Consider `O=C(Nc1cccc(-c2cccc(NC(=O)c3nc4c(s3)CNCC4)c2Cl)c1Cl)c1ncc(CNCCO)s1` [Example 97, N-(2,2′-dichloro-3′-(5-(((2-hydroxyethyl)amino)methyl)thiazole-2-carboxamido)-[1,1′-biphenyl]-3-yl)-4,5,6,7-tetrahydrothiazolo[5,4-c]pyridine-2-carboxamide], for which the IC50 is less than 25 nM.

Take `Cc1c(Nc2nccc3cc(CNCCO)cnc23)cccc1-c1cccc(Nc2nccc3cc(CNCC(F)(F)F)cnc23)c1C` [Example 156, 2-(((8-((2,2′-dimethyl-3′-((3-(((2,2,2-trifluoroethyl)amino)methyl)-1,7-naphthyridin-8-yl)amino)-[1,1′-biphenyl]-3-yl)amino)-1,7-naphthyridin-3-yl)methyl)amino)ethan-1-ol]: the IC50 was less than 25 nM. For the compound `Cc1nc(C(=O)N2CCc3c(-c4cccc5c4CCN5C(=O)c4ncc(CN(C)CCO)s4)cccc32)sc1CN(C)C` [Example 115, (5-((dimethylamino)methyl)-4-methylthiazol-2-yl)(1′-(5-(((2-hydroxyethyl)(methyl)amino)methyl)thiazole-2-carbonyl)-[4,4′-biindolin]-1-yl)methanone], the IC50 is less than 25 nM. `Cc1c(NC(=O)c2nc3c(o2)CNCC3)cccc1-c1cccc(NC(=O)c2nc3c(o2)CNCC3)c1C` [Example 13, N,N′-(2,2′-dimethyl-[1,1′-biphenyl]-3,3′-diyl)bis(4,5,6,7-tetrahydrooxazolo[5,4-c]pyridine-2-carboxamide)]: the IC50 fell in the range of 25 to 100 nM. As to `O=C(O)CN1CCc2sc(C(=O)N3CCc4c(-c5cccc6c5CCN6C(=O)c5nc6c(s5)CCN(CC(=O)O)C6)cccc43)nc2C1` [Example 119, 2,2′-(([4,4′-biindoline]-1,1′-dicarbonyl)bis(6,7-dihydrothiazolo[4,5-c]pyridine-2,5(4H)-diyl))diacetic acid], the IC50 is less than 25 nM. As to `NC(=O)CN1CCc2nc(C(=O)Nc3cccc(-c4cccc(NC(=O)c5nc6c(s5)CN(CC(N)=O)CC6)c4Cl)c3Cl)sc2C1` [Example 90, N,N′-(2,2′-dichloro-[1,1′-biphenyl]-3,3′-diyl)bis(5-(2-amino-2-oxoethyl)-4,5,6,7-tetrahydrothiazolo[5,4-c]pyridine-2-carboxamide)], the IC50 is less than 25 nM. The figure for `Cc1nc(C(=O)Nc2cccc(-c3cccc4c3CCN4C(=O)c3nc(C)c(CN[C@H](C(=O)O)C4CCOCC4)s3)c2)sc1CN[C@H](C(=O)O)C1CCOCC1` [Example 63, (S)-2-((2-(3-(1-(5-(((S)-carboxy(tetrahydro-2H-pyran-4-yl)methylamino)methyl)-4-methylthiazole-2-carbonyl)indolin-4-yl)phenylcarbamoyl)-4-methylthiazol-5-yl)methylamino)-2-(tetrahydro-2H-pyran-4-yl)acetic acid] is less than 25 nM; for `COC(=O)Cn1cc(CN2CCc3nc(C(=O)N4CCc5c(-c6cccc7c6CCN7C(=O)c6nc7c(s6)CN(Cc6cn(CC(=O)OC)nn6)CC7)cccc54)sc3C2)nn1` [Example 135, dimethyl 2,2′-(((([4,4′-biindoline]-1,1′-dicarbonyl)bis(6,7-dihydrothiazolo[5,4-c]pyridine-2,5(4H)-diyl))bis(methylene))bis(1H-1,2,3-triazole-4,1-diyl))diacetate] it is less than 25 nM. For `Cc1nc(C(=O)Nc2cccc(-c3cccc4c3CCN4C(=O)c3nc(C)c(CN4CCCC[C@H]4C(=O)O)s3)c2C)sc1CN1CCCC[C@H]1C(=O)O` [Example 58, (S)-1-((2-(3-(1-(5-(((S)-2-carboxypiperidin-1-yl)methyl)-4-methylthiazole-2-carbonyl)indolin-4-yl)-2-methylphenylcarbamoyl)-4-methylthiazol-5-yl)methyl)piperidine-2-carboxylic acid], the IC50 was less than 25 nM. Turning to `O=C(Nc1cccc(-c2cccc(NC(=O)c3nc4c(s3)CN(CCO)CC4)c2Cl)c1Cl)c1nc2c(s1)CN(CCO)CC2` [Example 91, N,N′-(2,2′-dichloro-[1,1′-biphenyl]-3,3′-diyl)bis(5-(2-hydroxyethyl)-4,5,6,7-tetrahydrothiazolo[5,4-c]pyridine-2-carboxamide)], the IC50 is less than 25 nM. In the case of `Cc1nc(C(=O)N2CCc3c(-c4cccc5c4CCN5C(=O)c4nc(C)c(CN[C@H](C(=O)O)C5CCOCC5)s4)cccc32)sc1CN[C@H](C(=O)O)C1CCOCC1` [Example 57, (2S,2'S)-2,2′-(2,2′-(4,4′-biindoline-1,1′-diylbis(oxomethylene))bis(4-methylthiazole-5,2-diyl))bis(methylene)bis(azanediyl)bis(2-(tetrahydro-2H-pyran-4-yl)acetic acid)], the IC50 is less than 25 nM.

On to `Cc1c(Nc2nccc3cc(CNCC(=O)O)cnc23)cccc1-c1cccc(Nc2nccc3cc(CNC[C@@H](O)CC(=O)O)cnc23)c1C` [Example 141, (S)-4-(((8-((3′-((3-(((carboxymethyl)amino)methyl)-1,7-naphthyridin-8-yl)amino)-2,2′-dimethyl-[1,1′-biphenyl]-3-yl)amino)-1,7-naphthyridin-3-yl)methyl)amino)-3-hydroxybutanoic acid], for which the IC50 is less than 25 nM. `Cc1nc(C(=O)Nc2cccc(-c3cccc(NC(=O)c4nc(C)c(CN[C@H](C(=O)O)C5CCOCC5)s4)c3C)c2C)sc1CN[C@H](C(=O)O)C1CCOCC1` [Example 53, (2S,2'S)-2,2′-(2,2′-(2,2′-dimethylbiphenyl-3,3′-diyl)bis(azanediyl)bis(oxomethylene)bis(4-methylthiazole-5,2-diyl))bis(methylene)bis(azanediyl)bis(2-(tetrahydro-2H-pyran-4-yl)acetic acid)]: the IC50 is less than 25 nM.

On to `Cc1c(NC(=O)c2nc3c(s2)CN(CC(C)(C)CO)CC3)cccc1-c1cccc(NC(=O)c2nc3c(s2)CN(CC(C)(C)CO)CC3)c1C` [Example 76, N,N′-(2,2′-dimethyl-[1,1′-biphenyl]-3,3′-diyl)bis(5-(3-hydroxy-2,2-dimethylpropyl)-4,5,6,7-tetrahydrothiazolo[5,4-c]pyridine-2-carboxamide)], for which the IC50 is less than 25 nM.

With `Cc1c(NC(=O)c2ccc3c(n2)CCNC3)cccc1-c1cccc(NC(=O)c2ccc3c(n2)CCN(CCO)C3)c1C` [Example 186, N-(2,2′-dimethyl-3′-(5,6,7,8-tetrahydro-1,6-naphthyridine-2-carboxamido)-[1,1′-biphenyl]-3-yl)-6-(2-hydroxyethyl)-5,6,7,8-tetrahydro-1,6-naphthyridine-2-carboxamide], the IC50 is less than 25 nM. For the compound `Cc1c(Nc2nccc3cc(CNCC(=O)O)cnc23)cccc1-c1cccc(Nc2nccc3cc(CNCC(=O)O)cnc23)c1C` [Example 138, 2,2′-(((((2,2′-dimethyl-[1,1′-biphenyl]-3,3′-diyl)bis(azanediyl))bis(1,7-naphthyridine-8,3-diyl))bis(methylene))bis(azanediyl))diacetic acid], the IC50 is less than 25 nM. In the case of `CC(c1nc2c(s1)CN(C)CC2)N1CCc2c(-c3cccc4c3CCN4C(C)c3nc4c(s3)CN(C)CC4)cccc21` (stereo not drawn) [Example 47, 1,1′-bis(1-(5-methyl-4,5,6,7-tetrahydrothiazolo[5,4-c]pyridin-2-yl)ethyl)-4,4′-biindoline], the IC50 was less than 25 nM.

By IC50 is commonly meant the midpoint of a concentration-inhibition curve.
